The structures appear in SMILES notation. Structures can show the parent of a compound that is named as a salt.

One data set concerns adjuvant-induced arthritis. Nature of the data set: inhibition of adjuvant-induced arthritis test (AA). The note with it: Rattus norvegicus, po, read-out: AA (% Inhib.).
Experimental: The inhibition of adjuvant-induced arthritis test used in the evaluation of the instant compounds is described briefly as follows: Adult male Sprague-Dawley strain rats weighing 200-230 grams were used; 0.1 ml. of a 0.6% suspension of adjuvant (M. Butyricum, Difco Laboratories, Detroit, Michigan) in heavy mineral oil was injected into the plantar tissue of the left hind paw. A negative control group was injected with mineral oil only. Symptoms of polyarthritis began to appear approximately ten days after adjuvant administration, and beginning on the ninth day after adjuvant injection, the animals were given, by gavage, twelve daily medications of the test compounds suspended in 1% gum tragacanth in a volume of 1 ml./100 g. of body weight. Both the negative control and adjuvant injected control animals received the vehicle only. Food and water are permitted ad libitum. Twenty-four hours after the last medication, the animals were weighed, the degree of arthritic involvement (that is the increase in foot edema measured plethysmographically as described above), and plasma inflammation units were determined. The results were expressed as percent inhibition calculated from the average differences in total foot volume of both hind paws between the adjuvant injected control and medicated rats, correcting for difference in foot volume of the oil injected negative control group.
Following foot volume measurements, the animals were anesthetized with ether and bled by heart puncture into rubber stoppered, evacuated glass tubes (calibrated to draw 2.7 ml.) containing 0.3 ml. of 0.1M sodium oxalate solution for determination of plasma inflammation units (P.I.U.). The unclotted blood was centrifuged, and 0.1 ml. of the plasma was diluted with 5.0 of 0.9% sodium chloride solution. The P.I.U.'s are direct spectrophotometer optical density readings expressed as the difference between preheated and heated plasma, corrected for 1:50 dilution. The results were expressed as percent inhibition calculated from the difference between the average plasma uncorrected for average plasma inflammation units of oil-injected negative control rats.
All data were obtained on oral administration.
For `COc1ccc2c(c1)c(CCNC(C)(C)C)c(C)n2C(=O)c1ccc(F)cc1.Cl` [Example 86, 1-(4-fluorobenzoyl)-3-[2-(N-t-butylamino)ethyl]-5-methoxy-2-methylindole hydrochloride], the inhibition in vivo at 0.005 µM, 0.005 µmol/kg was determined as 13% and the inhibition in vivo at 0.02 µM, 0.02 µmol/kg was found to be 71%.
`COc1ccc2c(c1)c(CCN1CCCCC1CC1CCCCC1)c(C)n2C(=O)c1ccccc1Br` (centres unmarked) [Example 7]: the inhibition in vivo at 0.08 µM, 0.08 µmol/kg was 29%.
Turning to `COc1ccc2c(c1)c(CCN1CCC(CCC3CCCCC3)CC1)c(C)n2C(=O)c1ccccc1` [Example 89, 1-benzoyl-3-{2-[4-(2-cyclohexylethyl)piperidino]ethyl}-5-methoxy-2-methylindole hydrochloride], the inhibition in vivo at 0.08 µM, 0.08 µmol/kg was 89%.
Consider `COc1ccc(C(=O)n2c(C)c(CCN3CCCCC3CC3CCCCC3)c3cc(OC)ccc32)cc1` (centres unmarked) [Example 3], for which the inhibition in vivo at 0.18 µM, 0.18 µmol/kg was determined as 64%.
Consider `COc1ccc2c(c1)c(CCN1CCCCC1CC1CCCCC1)c(C)n2C(=O)c1cccs1` (centres unmarked) [Example 10], for which the inhibition in vivo at 0.324 µM, 0.324 µmol/kg worked out at 63%.
As to `COc1ccc2c(c1)c(CCN1CCCCC1CC1CCCCC1)c(C)n2C(=O)c1ccccc1F` (centres unmarked) [Example 9], the inhibition in vivo at 0.162 µM, 0.162 µmol/kg is 72%.
As to `Cc1c(CCN2CCCCC2CC2CCCCC2)c2cc(F)cc(F)c2n1C(=O)c1ccccc1` (centres unmarked) [Example 50], the inhibition in vivo at 0.162 µM, 0.162 µmol/kg was 87%.
For the compound `COc1ccc2c(c1)c(CCN1CCCCC1CC1CCCCC1)c(C)n2C(=O)c1ccc(Cl)c(Cl)c1` (centres unmarked) [Example 5], the inhibition in vivo at 0.08 µM, 0.08 µmol/kg came out at 0%.
Turning to `COc1ccc2c(c1)c(CCN1CCCCC1CC1CCCCC1)c(C)n2C(=O)c1ccccc1` (centres unmarked) [Example 1, 1-Benzoyl-3-[2-(2-cyclohexylmethylpiperidino)ethyl]-5-methoxy-2-methylindole], the inhibition in vivo at 0.1 µM, 0.1 µmol/kg stood at 79%.
As to `COc1ccc2c(c1)c(CCN1CCCCC1CCC1CCCCC1)c(C)n2C(=O)c1ccc(F)cc1` (centres unmarked) [Example 65, 1-(4-fluorobenzoyl)-3-{2-[2-(2-cyclohexylethyl)piperidino]ethyl}-5-methoxy-2-methylindole hydrochloride], the inhibition in vivo at 0.08 µM, 0.08 µmol/kg was found to be 85%.
On the same count and under the same terms, as for `COc1ccc2c(c1)c(CCN1CCC(C3CCCCC3)CC1)c(C)n2C(=O)c1ccc(F)cc1` [Example 90, 1-(4-fluorobenzoyl)-3-[2-(4-cyclohexylpiperidino)ethyl]-5-methoxy-2-methylindole hydrochloride], the figure is 77%; as for `COc1ccc2c(c1)c(CCN1CCCCC1CC1CCCCC1)c(C)n2C(=O)c1cccc(F)c1` (centres unmarked) [Example 12], 17%.
`COc1ccc2c(c1)c(CCN1CCCCC1CC1CCCCC1)cn2C(=O)c1ccccc1` (centres unmarked) [Example 67]: the inhibition in vivo at 0.08 µM, 0.08 µmol/kg amounted to 25%.
With `COc1ccc2c(c1)c(CCN1CCCCC1CC1CCCCC1)c(C)n2C(=O)c1ccc(Cl)cc1Cl` (centres unmarked) [Example 4], the inhibition in vivo at 0.02 µM, 0.02 µmol/kg is 28% and the inhibition in vivo at 0.324 µM, 0.324 µmol/kg came to 80%.
`COc1ccc2c(c1)c(CCN(C(C)C)C(C)C)c(C)n2C(=O)c1ccccc1` [Example 73, 1-benzoyl-3-[2-(diisopropylamino)ethyl]-5-methoxy-2-methylindole hydrochloride]: the inhibition in vivo at 0.005 µM, 0.005 µmol/kg is 0%; the inhibition in vivo at 0.02 µM, 0.02 µmol/kg is 0%; the inhibition in vivo at 0.08 µM, 0.08 µmol/kg came to 53%.
For the compound `COc1ccc2c(c1)c(CCN(Cc1ccccc1)C(C)(C)C)c(C)n2C(=O)c1ccc(F)cc1` [Example 85, 1-(4-fluorobenzoyl)-3-[2-(N-benzyl-N-t-butylamino)ethyl]-5-methoxy-2-methylindole hydrochloride], the inhibition in vivo at 0.005 µM, 0.005 µmol/kg came to 0%; the inhibition in vivo at 0.02 µM, 0.02 µmol/kg amounted to 11%; the inhibition in vivo at 0.08 µM, 0.08 µmol/kg was 104%.
As for `COc1ccc2c(c1)c(CCN1CCCCC1CC1CCCCC1)c(C)n2C(=O)c1ccc(F)cc1` (centres unmarked) [Example 6], the inhibition in vivo at 0.02 µM, 0.02 µmol/kg came out at 66% and the inhibition in vivo at 0.08 µM, 0.08 µmol/kg turned out to be 84%.
On to `COc1ccc2c(c1)c(CCN1CCCCC1CC1CCCCC1)c(C)n2C(=O)c1ccco1` (centres unmarked) [Example 11], for which the inhibition in vivo at 0.324 µM, 0.324 µmol/kg came out at 50%.
As to `Cc1c(CCN2CCCCC2CC2CCCCC2)c2cc(F)ccc2n1C(=O)c1ccccc1` (centres unmarked) [Example 58], the inhibition in vivo at 0.08 µM, 0.08 µmol/kg was 51%.
Regarding `COc1ccc2c(c1)c(CCN1CCCCC1CC1CCCCC1)c(C)n2C(=O)c1ccc(Cl)cc1` (centres unmarked) [Example 84, 1-(4-chlorobenzoyl)-3-[2-(2-cyclohexylmethylpiperidino)ethyl]-5-methoxy-2-methylindole], the inhibition in vivo at 0.01 µM, 0.01 µmol/kg amounted to 36%; the inhibition in vivo at 0.04 µM, 0.04 µmol/kg is 70%; the inhibition in vivo at 0.16 µM, 0.16 µmol/kg worked out at 100%.
As for `COc1ccc2c(c1)c(CCN1CCCCC1CC1CCCCC1)c(C)n2C(=O)C=Cc1ccccc1` (centres unmarked) [Example 8], the inhibition in vivo at 0.08 µM, 0.08 µmol/kg turned out to be 30%.
On the same count and under the same terms, as for `COc1ccc2c(c1)c(CCN1CCCCC1CC1CCCCC1)c(C)n2C(=O)c1ccc(C)cc1` (centres unmarked) [Example 2], the figure is 37%.
As to `COc1ccc2c(c1)c(CCN(C(C)C)C(C)C)c(C)n2C(=O)c1ccc(F)cc1` [Example 87, 1-(4-fluorobenzoyl)-3-[2-(diisopropylamino)ethyl]-5-methoxy-2-methylindolehydrochloride], the inhibition in vivo at 0.005 µM, 0.005 µmol/kg is 43%; the inhibition in vivo at 0.02 µM, 0.02 µmol/kg was 73%; the inhibition in vivo at 0.08 µM, 0.08 µmol/kg amounted to 98%.
Regarding `COc1ccc2c(c1)c(CCN(Cc1ccccc1)C(C)(C)C)c(C)n2C(=O)c1ccccc1` [72 (N-Benzyl), 1-benzoyl-3-[2-(N-benzyl-N-t-butylamino)ethyl]-5-methoxy-2-methylindole hydrochloride], the inhibition in vivo at 0.08 µM, 0.08 µmol/kg is 62%.
Take `COc1ccc2c(c1)c(CCN1CCCCC1C1CCCCC1)c(C)n2C(=O)c1ccc(F)cc1` (centres unmarked) [Example 63, 1-(4-fluorobenzoyl)-3-[2-(2-cyclohexylpiperidino)ethyl]-5-methoxy-2-methylindole hydrochloride]: the inhibition in vivo at 0.08 µM, 0.08 µmol/kg was 84%.
Take `COc1ccc2c(c1)c(CCN1CCCCC1CCC1CCCCC1)c(C)n2C(=O)c1ccccc1` (centres unmarked) [Example 64, 1-benzoyl-3-{2-[2-(2-cyclohexylethyl)piperidino]ethyl}-5-methoxy-2-methylindole]: the inhibition in vivo at 0.01 µM, 0.01 µmol/kg stood at 36%; the inhibition in vivo at 0.04 µM, 0.04 µmol/kg amounted to 70%; the inhibition in vivo at 0.16 µM, 0.16 µmol/kg turned out to be 100%.
With `Cc1c(CCN2CCCCC2CC2CCCCC2)c2ccccc2n1C(=O)c1ccccc1` (centres unmarked) [Example 48], the inhibition in vivo at 0.08 µM, 0.08 µmol/kg came out at 33%.
Same read-out and setting: the figure for `COc1ccc2c(c1)c(CCN1CCC(CCC3CCCCC3)CC1)c(C)n2C(=O)c1ccc(F)cc1` [Example 88, 1-(4-fluorobenzoyl)-3-{2-[4-(2-cyclohexylethyl)piperidino]ethyl}-5-methoxy-2-methylindole hydrochloride] is 75%.
Regarding `COc1ccc2c(c1)c(CCN1CCCCC1C1CCCCC1)c(C)n2C(=O)c1ccccc1` (centres unmarked) [Example 62, 1-benzoyl-3-[2-(2-cyclohexylpiperidino)ethyl]-5-methoxy-2-methylindole hydrochloride], the inhibition in vivo at 0.324 µM, 0.324 µmol/kg came to 107%.

Staying with this data set, now noted: oral, twelve daily medications, 0.08 μM/kg.
In the case of `COc1ccc2c(c1)c(CCNC(C)(C)C)c(C)n2C(=O)c1ccc(F)cc1.Cl` [Example 86, 1-(4-fluorobenzoyl)-3-[2-(N-t-butylamino)ethyl]-5-methoxy-2-methylindole hydrochloride], the “AA: toxicity noted in place of % inhibition” value is reported as “Toxic”.

The same data set, now with this note: oral, twelve daily medications, 0.16 μM/kg.
With `COc1ccc2c(c1)c(CCNC(C)(C)C)c(C)n2C(=O)c1ccccc1.Cl` [72 (N-H), 1-benzoyl-3-[2-(N-t-butylamino)ethyl]-5-methoxy-2-methylindole hydrochloride], the “AA: toxicity noted in place of % inhibition” value is on record as “Toxic”.

For the origin of these results see patent publication US4021431A, “3-(Piperidino-lower-alkyl)-indoles” (Sterling Drug Inc., priority 1975, dated 1977).
